This passage reports remaining binding results from article PMC10924921, “Mi-2β promotes immune evasion in melanoma by activating EZH2 methylation” (Nature Communications, 2024).

What all share (assay): biochemical
Holding throughout (design): KINOMEscan active-site competition binding panel (468 kinase assays), per cent of control at 1000 nM
Holding throughout (conditions): KINOMEscan per cent of control (binding competition); read-out: Percent Control

Assay [1] deals with T1, ABL1(Y253F)-phosphorylated (Homo sapiens, UniProt P00519, Y253F).
T1 construct: phosphorylated
The source says: (§1) Figure S7 / Percent Control

Another assay concerns the target T2, ARK5 (Homo sapiens, UniProt O60285).
T2 construct: gene NUAK1
Description: as §1

The next assay concerns the target BRSK2 (Homo sapiens, UniProt Q8IWQ3).
Description: as §1

Another assay has as its target T3, CDK4-cyclinD1 (Homo sapiens, UniProt P11802).
T3 construct: cyclinD1
Description: as §1

The next assay has as its target CDKL5 (Homo sapiens, UniProt O76039).
Description: as §1

The target in the next assay is T4, DLK (Homo sapiens, UniProt Q12852).
T4 construct: gene MAP3K12
Description: as §1

In a further assay the target is EGFR(E746-A750del) (Homo sapiens, UniProt P00533, DEL746-750).
Description: as §1

A further assay addresses EGFR(L861Q) (Homo sapiens, UniProt P00533, L861Q).
Description: as §1

In a further assay the target is EPHA6 (Homo sapiens, UniProt Q9UF33).
Description: as §1

The target in a further assay is FLT3(D835Y) (Homo sapiens, UniProt P36888, D835Y).
Description: as §1

For a further assay, the target named is IRAK3 (Homo sapiens, UniProt Q9Y616).
Description: as §1

Another assay addresses T5, JNK1 (Homo sapiens, UniProt P45983).
T5 construct: gene MAPK8
Description: as §1

Another assay addresses KIT (Homo sapiens, UniProt P10721).
Description: as §1

The next assay has as its target T6, MEK5 (Homo sapiens, UniProt Q13163).
T6 construct: gene MAP2K5
Description: as §1

Another assay addresses MET(M1250T) (Homo sapiens, UniProt P08581, M1250T).
Description: as §1

The target of another assay is PDPK1 (Homo sapiens, UniProt O15530).
Description: as §1

In a further assay the target is PIK3CG (Homo sapiens, UniProt P48736).
Description: as §1

The target in a further assay is PIP5K1A (Homo sapiens, UniProt Q99755).
Description: as §1

The next assay has as its target PLK4 (Homo sapiens, UniProt O00444).
Description: as §1

The target in another assay is SYK (Homo sapiens, UniProt P43405).
Description: as §1

The target in another assay is TAOK1 (Homo sapiens, UniProt Q7L7X3).
Description: as §1

The next assay deals with TAOK2 (Homo sapiens, UniProt Q9UL54).
Description: as §1

The next assay has as its target T7, VEGFR2 (Homo sapiens, UniProt P35968).
T7 construct: gene KDR
Description: as §1

For the next assay, the target named is T8, YANK1 (Homo sapiens, UniProt Q8WU08).
T8 construct: gene STK32A
Description: as §1

T2 sequence (O60285 whole entry): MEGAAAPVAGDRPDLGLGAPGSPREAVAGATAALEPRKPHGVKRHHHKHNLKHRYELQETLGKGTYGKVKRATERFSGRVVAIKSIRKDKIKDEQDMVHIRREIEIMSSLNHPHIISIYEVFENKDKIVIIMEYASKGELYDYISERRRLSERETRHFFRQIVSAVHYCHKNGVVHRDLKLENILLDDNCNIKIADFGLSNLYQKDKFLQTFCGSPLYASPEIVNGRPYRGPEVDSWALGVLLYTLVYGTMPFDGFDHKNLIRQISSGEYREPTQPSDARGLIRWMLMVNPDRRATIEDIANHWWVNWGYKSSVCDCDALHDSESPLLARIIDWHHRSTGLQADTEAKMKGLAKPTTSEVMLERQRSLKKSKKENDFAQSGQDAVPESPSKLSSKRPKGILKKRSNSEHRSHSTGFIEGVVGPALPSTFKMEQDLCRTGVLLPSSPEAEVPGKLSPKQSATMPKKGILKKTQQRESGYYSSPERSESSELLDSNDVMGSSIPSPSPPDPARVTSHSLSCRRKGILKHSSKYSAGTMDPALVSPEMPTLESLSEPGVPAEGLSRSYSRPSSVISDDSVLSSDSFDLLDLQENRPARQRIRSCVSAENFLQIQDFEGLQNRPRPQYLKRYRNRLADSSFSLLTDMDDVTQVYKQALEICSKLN
EPHA6, sequence (Q9UF33 whole entry): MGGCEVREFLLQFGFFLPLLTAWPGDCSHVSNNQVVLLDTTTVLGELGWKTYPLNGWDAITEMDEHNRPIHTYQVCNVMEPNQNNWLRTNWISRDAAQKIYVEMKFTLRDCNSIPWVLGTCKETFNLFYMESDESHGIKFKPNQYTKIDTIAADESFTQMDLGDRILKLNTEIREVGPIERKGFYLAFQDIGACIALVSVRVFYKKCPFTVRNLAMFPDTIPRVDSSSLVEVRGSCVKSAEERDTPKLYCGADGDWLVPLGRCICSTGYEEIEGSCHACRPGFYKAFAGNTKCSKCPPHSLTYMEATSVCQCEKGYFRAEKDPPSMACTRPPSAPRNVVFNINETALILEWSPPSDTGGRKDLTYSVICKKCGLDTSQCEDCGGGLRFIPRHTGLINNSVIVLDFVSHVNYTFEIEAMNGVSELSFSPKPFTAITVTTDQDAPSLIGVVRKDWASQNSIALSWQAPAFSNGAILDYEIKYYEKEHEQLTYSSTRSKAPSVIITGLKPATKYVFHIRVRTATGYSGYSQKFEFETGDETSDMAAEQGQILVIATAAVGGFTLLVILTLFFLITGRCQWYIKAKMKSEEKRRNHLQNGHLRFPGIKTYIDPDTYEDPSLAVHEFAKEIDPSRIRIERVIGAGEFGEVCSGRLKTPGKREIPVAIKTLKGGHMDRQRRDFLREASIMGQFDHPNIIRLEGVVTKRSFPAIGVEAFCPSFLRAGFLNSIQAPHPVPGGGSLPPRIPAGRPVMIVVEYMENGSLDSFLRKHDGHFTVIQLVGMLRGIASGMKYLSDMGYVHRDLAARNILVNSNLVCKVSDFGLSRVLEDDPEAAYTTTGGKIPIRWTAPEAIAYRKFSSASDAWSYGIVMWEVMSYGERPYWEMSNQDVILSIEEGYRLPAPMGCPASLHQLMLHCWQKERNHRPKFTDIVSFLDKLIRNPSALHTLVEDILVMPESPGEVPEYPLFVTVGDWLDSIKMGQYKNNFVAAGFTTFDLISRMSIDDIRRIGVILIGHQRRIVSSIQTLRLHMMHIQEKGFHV
T5 sequence (P45983 whole entry): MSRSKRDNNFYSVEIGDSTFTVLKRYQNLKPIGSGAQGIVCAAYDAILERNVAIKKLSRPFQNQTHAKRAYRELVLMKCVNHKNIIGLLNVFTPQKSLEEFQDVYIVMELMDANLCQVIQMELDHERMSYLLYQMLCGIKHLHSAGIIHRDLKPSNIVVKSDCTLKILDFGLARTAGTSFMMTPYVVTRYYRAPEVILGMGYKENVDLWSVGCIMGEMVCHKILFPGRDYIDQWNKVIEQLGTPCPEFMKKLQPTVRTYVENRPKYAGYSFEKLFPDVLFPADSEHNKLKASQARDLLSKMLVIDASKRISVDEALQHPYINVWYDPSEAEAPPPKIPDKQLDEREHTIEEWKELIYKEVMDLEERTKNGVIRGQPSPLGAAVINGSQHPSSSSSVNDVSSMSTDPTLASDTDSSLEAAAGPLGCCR
CDKL5, sequence (O76039 whole entry): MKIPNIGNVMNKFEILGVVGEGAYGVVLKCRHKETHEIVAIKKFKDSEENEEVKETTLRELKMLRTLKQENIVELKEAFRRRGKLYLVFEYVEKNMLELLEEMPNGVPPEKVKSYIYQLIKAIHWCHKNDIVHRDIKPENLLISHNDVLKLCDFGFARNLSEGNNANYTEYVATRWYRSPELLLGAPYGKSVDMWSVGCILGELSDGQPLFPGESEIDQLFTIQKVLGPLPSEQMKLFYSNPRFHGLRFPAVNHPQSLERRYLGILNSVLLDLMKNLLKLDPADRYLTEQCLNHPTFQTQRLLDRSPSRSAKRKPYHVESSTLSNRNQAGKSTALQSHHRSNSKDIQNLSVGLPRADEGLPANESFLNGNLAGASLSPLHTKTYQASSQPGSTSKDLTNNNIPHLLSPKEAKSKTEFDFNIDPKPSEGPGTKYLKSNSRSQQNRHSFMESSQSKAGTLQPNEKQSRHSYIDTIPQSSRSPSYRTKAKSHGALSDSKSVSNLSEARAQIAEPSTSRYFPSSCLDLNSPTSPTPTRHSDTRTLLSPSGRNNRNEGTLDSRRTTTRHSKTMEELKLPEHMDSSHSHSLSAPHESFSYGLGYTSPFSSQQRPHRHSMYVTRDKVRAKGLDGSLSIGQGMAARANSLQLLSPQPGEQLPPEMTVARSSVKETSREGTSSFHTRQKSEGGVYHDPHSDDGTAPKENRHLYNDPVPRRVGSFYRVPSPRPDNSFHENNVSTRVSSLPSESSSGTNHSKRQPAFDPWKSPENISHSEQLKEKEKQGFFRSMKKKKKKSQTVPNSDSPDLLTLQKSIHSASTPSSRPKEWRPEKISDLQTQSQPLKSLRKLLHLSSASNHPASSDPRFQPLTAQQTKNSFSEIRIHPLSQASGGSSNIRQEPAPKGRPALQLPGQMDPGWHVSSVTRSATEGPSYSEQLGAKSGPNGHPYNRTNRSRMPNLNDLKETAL
PIP5K1A, sequence (Q99755 whole entry): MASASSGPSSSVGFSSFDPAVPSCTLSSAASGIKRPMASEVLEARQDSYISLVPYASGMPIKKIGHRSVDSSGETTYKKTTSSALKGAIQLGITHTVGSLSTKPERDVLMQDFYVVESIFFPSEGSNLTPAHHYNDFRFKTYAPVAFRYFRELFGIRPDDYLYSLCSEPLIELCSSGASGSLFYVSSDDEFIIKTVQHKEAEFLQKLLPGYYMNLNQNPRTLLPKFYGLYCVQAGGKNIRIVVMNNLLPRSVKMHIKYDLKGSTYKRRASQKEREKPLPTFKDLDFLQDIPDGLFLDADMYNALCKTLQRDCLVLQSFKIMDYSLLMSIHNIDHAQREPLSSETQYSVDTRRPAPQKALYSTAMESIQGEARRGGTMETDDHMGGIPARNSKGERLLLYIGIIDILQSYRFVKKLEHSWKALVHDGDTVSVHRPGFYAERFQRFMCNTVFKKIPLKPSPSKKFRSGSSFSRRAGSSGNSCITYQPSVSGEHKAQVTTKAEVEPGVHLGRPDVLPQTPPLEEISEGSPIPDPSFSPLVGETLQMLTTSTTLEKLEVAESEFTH
TAOK2, sequence (Q9UL54 whole entry): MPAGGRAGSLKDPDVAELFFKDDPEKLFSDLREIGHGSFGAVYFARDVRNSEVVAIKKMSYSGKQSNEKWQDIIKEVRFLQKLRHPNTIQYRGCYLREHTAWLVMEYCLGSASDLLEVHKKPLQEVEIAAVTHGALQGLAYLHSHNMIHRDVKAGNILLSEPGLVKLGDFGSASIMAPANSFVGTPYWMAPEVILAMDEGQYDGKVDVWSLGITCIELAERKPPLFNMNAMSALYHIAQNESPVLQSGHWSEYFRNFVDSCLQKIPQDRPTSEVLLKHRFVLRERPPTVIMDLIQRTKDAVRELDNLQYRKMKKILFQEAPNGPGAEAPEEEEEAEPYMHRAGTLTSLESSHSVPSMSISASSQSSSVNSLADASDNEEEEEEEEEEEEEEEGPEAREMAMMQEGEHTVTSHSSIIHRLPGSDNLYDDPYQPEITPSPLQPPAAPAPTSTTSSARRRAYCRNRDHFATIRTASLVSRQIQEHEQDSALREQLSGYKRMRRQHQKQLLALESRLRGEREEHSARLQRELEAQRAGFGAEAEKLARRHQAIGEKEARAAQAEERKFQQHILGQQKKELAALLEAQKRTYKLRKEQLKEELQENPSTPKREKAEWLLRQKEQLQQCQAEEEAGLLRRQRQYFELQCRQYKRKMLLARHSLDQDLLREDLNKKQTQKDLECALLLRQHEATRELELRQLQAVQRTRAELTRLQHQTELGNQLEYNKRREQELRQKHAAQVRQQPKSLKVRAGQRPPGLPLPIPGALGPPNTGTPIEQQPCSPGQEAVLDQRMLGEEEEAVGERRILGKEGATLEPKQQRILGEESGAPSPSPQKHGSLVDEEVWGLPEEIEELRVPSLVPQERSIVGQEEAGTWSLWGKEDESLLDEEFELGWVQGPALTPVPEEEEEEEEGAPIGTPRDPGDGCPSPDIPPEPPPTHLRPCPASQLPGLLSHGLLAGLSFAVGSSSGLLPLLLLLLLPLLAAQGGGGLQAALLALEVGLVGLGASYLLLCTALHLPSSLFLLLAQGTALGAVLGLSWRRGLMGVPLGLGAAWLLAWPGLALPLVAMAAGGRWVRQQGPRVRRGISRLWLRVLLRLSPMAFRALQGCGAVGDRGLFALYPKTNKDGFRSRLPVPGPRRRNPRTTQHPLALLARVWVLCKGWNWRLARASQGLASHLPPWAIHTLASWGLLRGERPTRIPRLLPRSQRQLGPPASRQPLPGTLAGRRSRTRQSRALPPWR

For the compound `Cn1c(=O)[nH]c2ccc(-c3cccc(C(=O)NC4CCn5ccnc5C4)c3)cc21` (stereo not drawn) [Z36-MP5], the remaining binding at 1 µM is 72% in [1]; 98% at ARK5; 100% on BRSK2; 67% at CDK4-cyclinD1; 39% at CDKL5; 62% at DLK. Besides, the remaining binding at 1 µM came to 63% on EGFR(E746-A750del); 69% on EGFR(L861Q); 69% at EPHA6; 88% on FLT3(D835Y); 99% on IRAK3; 61% at JNK1. Besides, the remaining binding at 1 µM amounted to 95% at KIT; 60% at MEK5; 88% at MET(M1250T); 97% at PDPK1; 83% at PIK3CG; 57% at PIP5K1A. The remaining binding at 1 µM on PLK4 amounted to 31%; on SYK, 57%; at TAOK1, 100%; on TAOK2, 87%; on VEGFR2, 56%; on YANK1 it was 95%.
